These molecules were tested against T1, human SVCT1 (Homo sapiens, UniProt Q9UHI7) (assay: Two-microelectrode voltage-clamp of Xenopus oocytes expressing human SVCT1). Conditions: 500 μM, −50 mV.
T1 construct: expressed in transfected cells; host or cells: Xenopus laevis oocytes injected with cRNA (vector pTLN2)
Type: cell-based
Experimental: (§1) Functional characterization in Xenopus oocytes—SVCT1 and SVCT2 cDNAs were subcloned into the pTLN2 vector (to improve functional expression in oocytes) and used for cRNA synthesis in vitro using the MEGAscript kit and T7 RNA polymerase (from Ambion). Oocytes were isolated from Xenopus laevis, treated with collagenase A and maintained at 18° C. in modified Barths' medium. Oocytes were injected with 15 ng SVCT1 or SVCT2 cRNA or water only. The radiotracer uptake and voltage-clamp experiments described below were conducted 2-5 days post-injection in standard medium of composition 100 mM NaCl, 2 mM KCl, 1 mM CaCl2, 1 mM MgCl2, and 10 mM HEPES (buffered to pH 7.5 with Tris base). For low-Na^+ or Na^+-free media, NaCl was replaced with choline chloride. For pH-dependence experiments, Na^+ media were buffered to between pH 5.5 and pH 8.0 using 0-5 mM MES, 0-5 mM HEPES and 0-5 mM Tris base. L-Ascorbic acid-containing solutions were always freshly prepared and used immediately. Radiotracer uptake was determined by incubating 8-12 oocytes for 30 min (within the time-course of linear uptake) in standard Na^+, low-Na^+ or Na^+-free media with 10-500 μM L-[1-^14C]ascorbic acid (final specific activity ≈0.3 GBq/mmol). Oocytes were solubilized with 10% SDS and carbon-14 content measured by liquid scintillation counting. A two-microelectrode voltage-clamp was used to measure currents associated with SVCT1 expressed in oocytes. Oocytes were superfused at 22° C. in standard Na^+ medium and clamped at −50 mV. Current was continuously monitored by sampling at 1 Hz. Test solutions were always washed out with substrate-free, Na^+-free medium at pH 7.5 for several minutes. Once again, saturation kinetics data were fit to a modified Hill equation in which I and Imax were replaced by uptake V and maximal velocity Vmax for analysis of radiotracer uptake data.

T1 sequence (Q9UHI7 whole entry): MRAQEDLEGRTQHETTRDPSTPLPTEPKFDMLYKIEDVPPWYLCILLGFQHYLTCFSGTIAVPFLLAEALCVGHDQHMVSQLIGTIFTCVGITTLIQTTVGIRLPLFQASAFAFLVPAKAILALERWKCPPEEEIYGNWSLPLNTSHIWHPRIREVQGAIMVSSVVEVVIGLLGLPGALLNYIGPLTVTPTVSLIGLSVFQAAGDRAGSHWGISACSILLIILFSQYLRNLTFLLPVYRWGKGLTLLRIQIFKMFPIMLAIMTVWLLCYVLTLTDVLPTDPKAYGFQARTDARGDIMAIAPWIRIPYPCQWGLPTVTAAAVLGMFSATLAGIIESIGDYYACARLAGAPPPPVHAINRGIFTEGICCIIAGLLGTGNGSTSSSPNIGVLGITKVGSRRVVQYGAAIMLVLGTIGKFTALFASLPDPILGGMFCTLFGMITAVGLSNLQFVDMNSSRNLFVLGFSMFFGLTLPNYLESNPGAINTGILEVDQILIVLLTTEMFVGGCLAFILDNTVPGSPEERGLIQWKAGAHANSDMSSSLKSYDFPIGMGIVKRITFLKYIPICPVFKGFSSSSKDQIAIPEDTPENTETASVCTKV

Row | transport / substrate selectivity (in words) | SMILES
1 | barely transported | O=C1O[C@H]([C@@H](O)CO)C(O)=C1OP(=O)(O)O [L-ascorbic acid-2-phosphate]
2 | excluded | O=C1O[C@H]([C@@H](O)CO)[C@H](O)[C@@H]1O [L-gulono-γ-lactone]

Same assay, conditions: each at 500 μM, −50 mV

Row | evoked current relative to that of L-ascorbic acid | SMILES
3 | about 15% | O=C1O[C@H]([C@H](O)CO)C(O)=C1O [D-isoascorbic acid]

Same assay, conditions: −50 mV

Row | K0.5 based on evoked currents [mM] | SMILES
4 | 2.7 ± 1.2 | O=C1O[C@H]([C@H](O)CO)C(O)=C1O [D-isoascorbic acid]

These molecules were tested against T2, rat SVCT1 (Rattus norvegicus, UniProt Q9WTW7) (assay: Two-microelectrode voltage-clamp of Xenopus oocytes expressing rat SVCT1). Conditions: at 200 μM L-ascorbic acid, −50 mV.
T2 construct: expressed in transfected cells; host or cells: Xenopus laevis oocytes injected with cRNA
T2 sequence (Q9WTW7 whole entry): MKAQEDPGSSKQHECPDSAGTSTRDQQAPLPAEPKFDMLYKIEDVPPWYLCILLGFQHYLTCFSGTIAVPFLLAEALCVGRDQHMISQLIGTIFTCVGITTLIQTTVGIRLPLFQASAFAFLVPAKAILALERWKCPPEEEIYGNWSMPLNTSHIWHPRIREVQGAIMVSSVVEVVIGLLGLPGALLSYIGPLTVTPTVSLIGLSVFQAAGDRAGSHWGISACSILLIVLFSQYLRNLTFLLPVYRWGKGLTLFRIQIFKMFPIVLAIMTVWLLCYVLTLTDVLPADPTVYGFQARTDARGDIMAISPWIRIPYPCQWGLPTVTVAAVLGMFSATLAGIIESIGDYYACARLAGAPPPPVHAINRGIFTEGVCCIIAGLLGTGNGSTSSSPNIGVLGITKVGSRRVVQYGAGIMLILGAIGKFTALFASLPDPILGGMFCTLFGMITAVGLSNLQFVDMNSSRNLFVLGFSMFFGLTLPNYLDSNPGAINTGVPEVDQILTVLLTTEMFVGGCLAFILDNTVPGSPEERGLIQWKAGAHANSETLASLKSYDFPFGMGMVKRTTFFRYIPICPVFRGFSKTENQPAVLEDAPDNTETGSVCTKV
Type: cell-based
Experimental: Rat SVCT1 and SVCT2 clones were obtained by isolating SVCT1 cDNA from rat kidney by expression cloning as described in Hediger et al., Methods Enzymol. 296:17-52 (1998). The SVCT2 cDNA was subsequently isolated by PCR-based homology screening of a rat brain cDNA library. […] Radiotracer and voltage-clamp experiments were performed (at 22° C.) in Xenopus oocytes two to seven days after injection with ˜25 ng of SVCT1 or SVCT2 cRNA synthesized in vitro. Radiotracer uptake was determined by incubating 6-10 oocytes for 30 or 60 min in standard 100 mM Na^+ or Na^+-free media with 10-600 μM L-[^14C]ascorbic acid.
Functional characterization of SVCT1 and SVCT2 in Xenopus oocytes—Oocytes were isolated from Xenopus laevis (under 2-aminoethylbenzoate anaesthesia), treated with collagenase A and stored at 18° C. in modified Barths' medium. Oocytes were injected with ≈25 ng of SVCT1 or SVCT2 cRNA synthesized in vitro, or water only (control), and incubated 2-7 days before radiotracer or voltage-clamp experiments were performed. Standard Na^+ uptake medium comprised 100 mM NaCl, 2 mM KCl, 1 mM CaCl2, 1 mM MgCl2, 10 mM HEPES (pH 7.5 with Tris base). For Na^+-free or low-Na^+ media, NaCl was replaced by equimolar choline chloride; likewise, Cl^− was replaced by gluconate for Cl^−-free medium. For pH-sensitivity experiments, Na^+ media were buffered at pH 5.5-8.0 using 0-5 mM MES, 0-5 mM HEPES and 0-5 mM Tris base. L-Ascorbic acid-containing solutions were freshly-prepared (without dithiothreitol) and used immediately.
Radiotracer uptake was determined by incubating 6-10 oocytes for 30 or 60 min in standard Na^+ or Na^+-free media (at 22° C.) with 10-600 μM L-[1-^14C]ascorbic acid (final specific activity 0.3 GBq/mmol). Oocytes were solubilized with 10% SDS and [^14C]-content was measured by liquid scintillation counting. A two-microelectrode voltage-clamp was used to measure currents in control oocytes and oocytes injected with rat SVCT1 or rat SVCT2 cRNA. Microelectrodes (resistance 0.5-5 MΩ) were filled with 3 M KCl. Oocytes were superfused at 22° C. in standard Na^+ medium and clamped at a holding potential (Vh) of −50 mV. For continuous current monitoring at Vh=−50 mV, the current was low-pass filtered at 20 Hz (sampling at 1 Hz). Additionally, step-changes in membrane potential (Vm) were applied (from +50 mV to −150 mV in 20-mV increments), each for a duration of 100 ms, before and after the addition of substrate; current was low-pass filtered at 500 Hz and digitized at 5 kHz. Test solutions were always washed out with substrate-free medium (100 mM choline chloride) at pH 7.5 for several minutes. Steady-state data (obtained by averaging the points over the final 16.7 ms at each Vm step when step-changes were applied) were fitted to equation (1) below, for which I is the evoked current (i.e., the difference in steady-state current measured in the presence and absence of substrate), Imax the derived current maximum, S the concentration of substrate S (Na^+ or L-ascorbic acid),
[formula] the substrate concentration at which current was half-maximal, and nH the Hill coefficient for S. (For radiotracer experiments, I was replaced with velocity V and Imax replaced with the derived maximal velocity, Vmax.)

Row | K0.5 for Na^+ (concentration at which current was half-maximal) [mM] | SMILES
5 | 40 | [Na+] [Na^+]

Same assay, conditions: evoked currents, −50 mV

Row | Hill coefficient (nH) | SMILES
6 | ≈ 2 | [Na+] [Na^+]

Same assay, conditions: oocytes expressing SVCT1

Row | evoked current / substrate selectivity (in words) | SMILES
7 | excluded | O=C1O[C@H]([C@@H](O)CO)[C@H](O)[C@@H]1O [L-gulono-γ-lactone]
8 | excluded | O=c1cc[nH]c(=O)[nH]1 [uracil]

Same assay, conditions: substrate selectivity, FIG. 4F

Row | evoked current relative to that for L-ascorbic acid | SMILES
9 | ≈ 30% | O=C1O[C@H]([C@H](O)CO)C(O)=C1O [D-isoascorbic acid]

These molecules were tested against T1, human SVCT1 (assay: L-[14C]ascorbic acid radiotracer uptake in Xenopus oocytes expressing human SVCT1). Conditions: not given.
Type: cell-based
Experimental: as §1, with “Radiotracer uptake was determined by incubating 8-12 oocytes for 30 min (within the time-course of linear uptake) in standard Na^+, low-Na^+ or Na^+-free media with 10-500 μM L-[1-^14C]ascorbic acid (final specific activity ≈0.3 GBq/mmol).” left out

Row | ability to substitute for Na^+ in driving SVCT1-mediated transport | SMILES
10 | unable to substitute for Na^+ | [Li+] [Li^+]

Same assay, conditions: L-ascorbic acid uptake

Row | K0.5 for Na^+ [mM] | SMILES
11 | 15 to 25 | [Na+] [Na^+]

Same assay, conditions: data not shown

Row | inhibition of L-[14C]ascorbic acid uptake | SMILES | inhibition of L-[14C]ascorbic acid uptake (in words)
12 | – | O=CC[C@@H](O)[C@H](O)[C@H](O)CO [2-deoxy-D-glucose] | not significantly inhibited
13 | – | Nc1ncnc2c1ncn2C1CC(O)C(CO)O1 (centres unmarked) [2-deoxyadenosine] | none resulted in any significant inhibition
14 | – | Nc1ncnc2c1ncn2[C@@H]1O[C@H](COP(=O)(O)OP(=O)(O)O)[C@@H](O)[C@H]1O [ADP] | none resulted in any significant inhibition
15 | – | Nc1ncnc2c1ncn2[C@@H]1O[C@H](COP(=O)(O)O)[C@@H](O)[C@H]1O [AMP] | none resulted in any significant inhibition
16 | – | Nc1ncnc2c1ncn2[C@@H]1O[C@H](COP(=O)(O)OP(=O)(O)OP(=O)(O)O)[C@@H](O)[C@H]1O [ATP] | none resulted in any significant inhibition
17 | – | O=C(CO)[C@@H](O)[C@H](O)[C@H](O)CO [D-fructose] | not significantly inhibited
18 | – | OC[C@@H](O)[C@@H](O)[C@H](O)[C@H](O)CO [D-mannitol] | not significantly inhibited
19 | – | O=C[C@H](O)[C@H](O)[C@H](O)CO [D-ribose] | not significantly inhibited
20 | – | Nc1nc2c(ncn2[C@@H]2O[C@H](COP(=O)(O)OP(=O)(O)OP(=O)(O)O)[C@@H](O)[C@H]2O)c(=O)[nH]1 [GTP] | none resulted in any significant inhibition
21 | 20-30% | CCCCCCCCCCCCCCCC(=O)OC[C@H](O)[C@H]1OC(=O)C(O)=C1O [L-ascorbic acid-6-palmitate] | –
22 | – | O=C[C@@H](O)[C@@H](O)[C@@H](O)CO [L-ribose] | not significantly inhibited
23 | – | O=c1ccn([C@@H]2O[C@H](COP(=O)(O)OP(=O)(O)OP(=O)(O)O)[C@@H](O)[C@H]2O)c(=O)[nH]1 [UTP] | none resulted in any significant inhibition
24 | – | Nc1ncnc2nc[nH]c12 [adenine] | none resulted in any significant inhibition
25 | – | Nc1ncnc2c1ncn2[C@@H]1O[C@H](CO)[C@@H](O)[C@H]1O [adenosine] | none resulted in any significant inhibition
26 | – | Nc1ncnc2c1ncn2[C@H]1C[C@H](O)[C@@H](COP(=O)(O)OP(=O)(O)OP(=O)(O)O)O1 [dATP] | none resulted in any significant inhibition
27 | – | Nc1ccn([C@H]2C[C@H](O)[C@@H](COP(=O)(O)OP(=O)(O)OP(=O)(O)O)O2)c(=O)n1 [dCTP] | none resulted in any significant inhibition
28 | – | Nc1nc2c(ncn2[C@H]2C[C@H](O)[C@@H](COP(=O)(O)OP(=O)(O)OP(=O)(O)O)O2)c(=O)[nH]1 [dGTP] | none resulted in any significant inhibition
29 | – | Cc1cn([C@H]2C[C@H](O)[C@@H](COP(=O)(O)OP(=O)(O)OP(=O)(O)O)O2)c(=O)[nH]c1=O [dTTP] | none resulted in any significant inhibition
30 | – | Nc1nc2c(ncn2[C@@H]2O[C@H](CO)[C@@H](O)[C@H]2O)c(=O)[nH]1 [guanosine] | none resulted in any significant inhibition
31 | – | OC[C@H]1O[C@@H](n2cnc3c(O)ncnc32)[C@H](O)[C@@H]1O [inosine] | none resulted in any significant inhibition
32 | – | CC(O)C(=O)O (centres unmarked) [lactic acid] | not significantly inhibited
33 | – | O=C(O)C(=O)O [oxalic acid] | not significantly inhibited
34 | – | O=C(O)CCC(=O)O [succinic acid] | not significantly inhibited
35 | – | Cc1c[nH]c(=O)[nH]c1=O [thymine] | none resulted in any significant inhibition
36 | – | O=c1cc[nH]c(=O)[nH]1 [uracil] | none resulted in any significant inhibition
37 | – | O=c1[nH]c(=O)c2[nH]c(=O)[nH]c2[nH]1 [uric acid] | not significantly inhibited
38 | – | O=c1ccn([C@@H]2O[C@H](CO)[C@@H](O)[C@H]2O)c(=O)[nH]1 [uridine] | none resulted in any significant inhibition

Reference: patent US7371536B2, “Methods for transporting vitamin C” (priority 1999, dated 2008)
